# Data as given in article PMC12249711, “Comprehensive Evaluation of 1H-Isoindole-1,3(2H)-Dione Derivatives: Pharmacokinetic Studies and Analgesic Potential in Various Pain Models” (International Journal of Molecular Sciences, 2025).
# Experiments:
# mice = assay: Streptozotocin-induced diabetic neuropathy, von Frey test (tactile allodynia); type: in vivo, Albino Swiss mice; settings: diabetic (STZ) mice, 10 mg/kg i.p.; for Pain threshold after compound administration (von Frey): 30 min before the test; for Analgesic activity (von Frey): vs pre-drug threshold
# Procedure: The induction of diabetes neuropathy in mice was achieved through the administration of streptozotocin (STZ), dissolved in PBS at a dose of 200 mg/kg in a constant volume of 0.1 mL/10 g of mouse body weight, intraperitoneally; (n = 50). Blood glucose levels were measured immediately prior to the administration of streptozotocin and 14 and 21 days following this administration in order to confirm the presence of hyperglycemia. For this purpose, 5 µL of blood was drawn from the tail vein of the mice using a strip glucose meter (AccuChek Active, Roche, Boulogne-Billancourt, France).
# Furthermore, to assess the response to mechanical stimuli (i.e., tactile/mechanical) allodynia), the von Frey test was carried out with application of the electronic von Frey unit (Panlab, Cornellà de Llobregat, Spain) equipped with a fiber, the distal end of which was applied to the right hind paw of the mouse. The device automatically recorded the pressure force (in grams) applied until the paw withdrawal response occurred. In the absence of pain, an increase in the pressure value was observed. The force at which the animal withdrew its paw was considered the pain threshold for the mechanical stimulus. Measurements were taken before streptozotocin administration (in normoglycemic mice) and again 21 days later, both before and after compound administration, in diabetic mice (glucose level > 300 mg/dL) that had developed mechanical allodynia. On the day of the experiment, each mouse was placed in an observation chamber with a wire mesh bottom and was allowed to habituate for 1 h. After the habituation period, in order to obtain baseline values, each mouse was tested 3 times alternately in each hind paw, allowing at least 30 s between each measurement. Then, the mice were pretreated intraperitoneally with compound or vehicle, and 30 min later the animals were tested again and three measurements were taken, the mean of which was calculated to obtain the mean values after drug administration for each mouse. The anti-allodynic effect was defined as an increase in the pressure force value required to elicit a pain response, compared to the control group.
# [1] = design: method as in PMID 35396875; settings: initial in vivo screening; cited from earlier work
SMILES,Pain threshold after compound administration (von Frey) (mice) [g],Analgesic activity (von Frey) (mice) [%],"Activity in central (supraspinal) pain model, hot plate test [1]"
O=C1c2ccccc2C(=O)N1CC(O)CN1CCN(c2ccccc2)CC1 (stereo not drawn) [Compound F1],4.28 ± 0.32,48.6,–
COc1ccccc1N1CCN(CC(O)CN2C(=O)c3ccccc3C2=O)CC1 (stereo not drawn) [Compound F2],4.58 ± 0.29,39.4,–
O=C1c2ccccc2C(=O)N1CC(O)CN1CCN(c2cccc(C(F)(F)F)c2)CC1 (stereo not drawn) [Compound F3],5.21 ± 0.32,81.13,–
O=C1c2ccccc2C(=O)N1CC(O)CN1CCN(C(c2ccccc2)c2ccccc2)CC1 (stereo not drawn) [Compound F4],3.98 ± 0.23,38.29,inactive
